Legend:
Gefitinib = compound: COc1cc2ncnc(Nc3ccc(F)c(Cl)c3)c2cc1OCCCN1CCOCC1 [Gefitinib]; settings: max 10 µM
In short: (§1)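 Following 24 hours at 37°C and 5% CO2, cancer cell lines in 1536-well plates with 7.5 μl DMEM/F12 or RPMI and 10% FBS were dosed for 72 hours, final DMSO typically being 0.2%. CellTiter-Glo 2.0 luminescence, scaled between blank-well and DMSO-well means, gave the viability readout. Dose responses were fitted to a two-parameter logistic curve with a non-linear mixed effects model, and the single-agent IC50 was derived from this fit.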

Palbociclib = compound: CC(=O)c1c(C)c2cnc(Nc3ccc(N4CCNCC4)cn3)nc2n(C2CCCC2)c1=O [Palbociclib]; settings: max 10 µM
In short: as §1

Trametinib = compound: CC(=O)Nc1cccc(-n2c(=O)n(C3CC3)c(=O)c3c(Nc4ccc(I)cc4F)n(C)c(=O)c(C)c32)c1 [Trametinib]; settings: max 1 µM
In short: as §1

AZD1775 = compound: C=CCn1c(=O)c2cnc(Nc3ccc(N4CCN(C)CC4)cc3)nc2n1-c1cccc(C(C)(C)O)n1 [AZD1775]; settings: max 3 µM
In short: as §1

AZD8186 = compound: C[C@@H](Nc1cc(F)cc(F)c1)c1cc(C(=O)N(C)C)cc2c(=O)cc(N3CCOCC3)oc12 [AZD8186]; settings: max 3 µM
In short: as §1

AZD0156 = compound: CN(C)CCCOc1ccc(-c2ccc3ncc4c(c3c2)n(C2CCOCC2)c(=O)n4C)cn1 [AZD0156]; settings: max 3 µM
In short: as §1

Venetoclax = compound: CC1(C)CCC(CN2CCN(c3ccc(C(=O)NS(=O)(=O)c4ccc(NCC5CCOCC5)c([N+](=O)[O-])c4)c(Oc4cnc5[nH]ccc5c4)c3)CC2)=C(c2ccc(Cl)cc2)C1 [Venetoclax]; settings: max 1 µM
In short: as §1

Capivasertib = compound: C1CN(CCC1(C(=O)N[C@@H](CCO)C2=CC=C(C=C2)Cl)N)C3=NC=NC4=C3C=CN4 [Capivasertib]; settings: max 10 µM
In short: as §1

AZD2811 = compound: CCN(CCO)CCCOc1ccc2c(Nc3cc(CC(=O)Nc4cccc(F)c4)[nH]n3)ncnc2c1 [AZD2811]; settings: max 1 µM
In short: as §1

Savolitinib = compound: C[C@@H](c1ccc2nccn2c1)n1nnc2ncc(-c3cnn(C)c3)nc21 [Savolitinib]; settings: max 1 µM
In short: as §1

AZD7648 = compound: Cc1cc2ncnn2cc1Nc1ncc2c(n1)n(C1CCOCC1)c(=O)n2C [AZD7648]; settings: max 10 µM
In short: as §1

Lapatinib = compound: CS(=O)(=O)CCNCc1ccc(-c2ccc3ncnc(Nc4ccc(OCc5cccc(F)c5)c(Cl)c4)c3c2)o1 [Lapatinib]; settings: max 10 µM
In short: as §1

Crizotinib = compound: C[C@@H](Oc1cc(-c2cnn(C3CCNCC3)c2)cnc1N)c1c(Cl)ccc(F)c1Cl [Crizotinib]; settings: max 10 µM
In short: as §1

SN-38 = compound: CCc1c2c(nc3ccc(O)cc13)-c1cc3c(c(=O)n1C2)COC(=O)[C@]3(O)CC [SN-38]; settings: max 0.3 µM
In short: as §1

Taselisib = compound: Cc1nc(-c2cn3c(n2)-c2ccc(-c4cnn(C(C)(C)C(N)=O)c4)cc2OCC3)n(C(C)C)n1 [Taselisib]; settings: max 10 µM
In short: as §1

Dasatinib = compound: CC1=C(C(=CC=C1)Cl)NC(=O)C2=CN=C(S2)NC3=CC(=NC(=N3)C)N4CCN(CC4)CCO [Dasatinib]; settings: max 2 µM
In short: as §1

Alisertib = compound: COc1cc(Nc2ncc3c(n2)-c2ccc(Cl)cc2C(c2c(F)cccc2OC)=NC3)ccc1C(=O)O [Alisertib]; settings: max 10 µM
In short: as §1

Prexasertib = compound: COc1cccc(OCCCN)c1-c1cc(Nc2cnc(C#N)cn2)n[nH]1 [Prexasertib]; settings: max 1 µM
In short: as §1

Olaparib = compound: O=C(c1cc(Cc2n[nH]c(=O)c3ccccc23)ccc1F)N1CCN(C(=O)C2CC2)CC1 [Olaparib]; settings: max 10 µM
In short: as §1

AZD6738 = compound: C[C@@H]1COCCN1C2=NC(=NC(=C2)C3(CC3)[S@](=N)(=O)C)C4=C5C=CNC5=NC=C4 [AZD6738]; settings: max 10 µM
In short: as §1

AZD4320 = compound: CN(CC[C@H](CSC1=CC=CC=C1)NC2=C(C=C(C=C2)S(=O)(=O)NC(=O)C3=CC=C(C=C3)N4CCC(CC4)[C@H](C5=CC=CC=C5C6=CC=C(C=C6)Cl)O)S(=O)(=O)C(F)(F)F)CCO [AZD4320]; settings: max 1 µM
In short: as §1

AZD1390 = compound: CC(C)n1c(=O)n(C)c2cnc3cc(F)c(-c4ccc(OCCCN5CCCCC5)nc4)cc3c21 [AZD1390]; settings: max 0.3 µM
In short: as §1

Selumetinib = compound: Cn1cnc2c(F)c(Nc3ccc(Br)cc3Cl)c(C(=O)NOCCO)cc21 [Selumetinib]; settings: max 10 µM
In short: as §1

SG3199 = compound: CC1=CN2[C@@H](C1)C=NC3=CC(=C(C=C3C2=O)OC)OCCCCCOC4=C(C=C5C(=C4)N=C[C@@H]6CC(=CN6C5=O)C)OC [SG3199]; settings: max 0.001 µM
In short: as §1

AZD5153 = compound: COc1nnc2ccc(N3CCC(c4ccc(OCCN5CCN(C)C(=O)[C@H]5C)cc4)CC3)nn12 [AZD5153]; settings: max 1 µM
In short: as §1

Doxorubicin = compound: COc1cccc2c1C(=O)c1c(O)c3c(c(O)c1C2=O)C[C@@](O)(C(=O)CO)C[C@@H]3O[C@H]1C[C@H](N)[C@H](O)[C@H](C)O1 [Doxorubicin]; settings: max 1 µM
In short: as §1

AZD5991 = compound: Cc1c2c(nn1C)CSCc1cc(n(C)n1)CSc1cc(c3ccccc3c1)OCCCc1c(C(=O)O)n(C)c3c-2c(Cl)ccc13 [AZD5991]; settings: max 1 µM
In short: as §1

Row | Cell Line | IC50, cell viability 72 h (Gefitinib) | IC50, cell viability 72 h (Palbociclib) | IC50, cell viability 72 h (Trametinib) | IC50, cell viability 72 h (AZD1775) | IC50, cell viability 72 h (AZD8186) | IC50, cell viability 72 h (AZD0156) | IC50, cell viability 72 h (Venetoclax) | IC50, cell viability 72 h (Capivasertib) | IC50, cell viability 72 h (AZD2811) | IC50, cell viability 72 h (Savolitinib) | IC50, cell viability 72 h (AZD7648) | IC50, cell viability 72 h (Lapatinib) | IC50, cell viability 72 h (Crizotinib) | IC50, cell viability 72 h (SN-38) | IC50, cell viability 72 h (Taselisib) | IC50, cell viability 72 h (Dasatinib) | IC50, cell viability 72 h (Alisertib) | IC50, cell viability 72 h (Prexasertib) | IC50, cell viability 72 h (Olaparib) | IC50, cell viability 72 h (AZD6738) | IC50, cell viability 72 h (AZD4320) | IC50, cell viability 72 h (AZD1390) | IC50, cell viability 72 h (Selumetinib) | IC50, cell viability 72 h (SG3199) | IC50, cell viability 72 h (AZD5153) | IC50, cell viability 72 h (Doxorubicin) | IC50, cell viability 72 h (AZD5991)
1 | SCC-15 (Oral Cavity Carcinoma) | > 10 µM | > 10 µM | > 1000 nM | > 3000 nM | > 3000 nM | > 3000 nM | > 1000 nM | > 10 µM | > 1000 nM | > 1000 nM | > 10 µM | > 10 µM | > 10 µM | 66.1 nM | 2 µM | 1360 nM | > 10 µM | 682 nM | > 10 µM | > 10 µM | > 1000 nM | > 300 nM | > 10 µM | > 1 nM | > 1000 nM | > 1000 nM | > 1000 nM
2 | NEC8 (Other Solid Carcinomas) | > 10 µM | > 10 µM | > 1000 nM | 558 nM | > 3000 nM | > 3000 nM | > 1000 nM | > 10 µM | > 1000 nM | > 1000 nM | > 10 µM | > 10 µM | > 10 µM | 21.5 nM | > 10 µM | > 2000 nM | > 10 µM | 35.7 nM | > 10 µM | 5.76 µM | > 1000 nM | > 300 nM | > 10 µM | > 1 nM | 226 nM | 595 nM | > 1000 nM
3 | OSC-20 (Oral Cavity Carcinoma) | > 10 µM | > 10 µM | > 1000 nM | 1220 nM | > 3000 nM | > 3000 nM | > 1000 nM | > 10 µM | > 1000 nM | > 1000 nM | > 10 µM | > 10 µM | > 10 µM | 40.4 nM | 9.68 µM | > 2000 nM | > 10 µM | 458 nM | > 10 µM | > 10 µM | > 1000 nM | > 300 nM | > 10 µM | > 1 nM | > 1000 nM | > 1000 nM | > 1000 nM
4 | KMOE-2 (Acute Myeloid Leukemia) | > 10 µM | > 10 µM | 1.74 nM | 411 nM | > 3000 nM | > 3000 nM | > 1000 nM | > 10 µM | > 1000 nM | > 1000 nM | > 10 µM | > 10 µM | > 10 µM | 40 nM | 9.87 µM | > 2000 nM | 0.465 µM | 55.8 nM | > 10 µM | 8.12 µM | 409 nM | > 300 nM | 0.104 µM | > 1 nM | 102 nM | 881 nM | 773 nM
5 | OVCAR-4 (Ovarian Carcinoma) | > 10 µM | > 10 µM | > 1000 nM | > 3000 nM | > 3000 nM | > 3000 nM | > 1000 nM | > 10 µM | > 1000 nM | > 1000 nM | > 10 µM | > 10 µM | > 10 µM | > 300 nM | > 10 µM | > 2000 nM | > 10 µM | 57.4 nM | > 10 µM | 6.93 µM | > 1000 nM | > 300 nM | > 10 µM | > 1 nM | > 1000 nM | > 1000 nM | > 1000 nM
6 | HOP-62 (Lung Adenocarcinoma) | > 10 µM | > 10 µM | 200 nM | > 3000 nM | > 3000 nM | > 3000 nM | > 1000 nM | > 10 µM | > 1000 nM | > 1000 nM | > 10 µM | > 10 µM | > 10 µM | 101 nM | > 10 µM | 956 nM | 8.66 µM | 225 nM | > 10 µM | > 10 µM | > 1000 nM | > 300 nM | 8.92 µM | > 1 nM | 243 nM | > 1000 nM | > 1000 nM

Reference: the supplement of paper PMC11061612
